In patent US20240115557A1, “INHIBITORS OF RNA-GUIDED NUCLEASES AND USES THEREOF” (The Brigham and Women's Hospital, Inc., priority 2022, published 2024):

Legend:
SpCas9 [1] = biological target: T1, SpCas9 (Streptococcus pyogenes serotype M1, UniProt Q99ZW2); assay: eGFP disruption assay, SpCas9, U2OS.eGFP.PEST cells; format: cell-based; conditions: for Normalized Z rep1 / Z score Rep1 / % GFP+, Rep 1: replicate 1; for SpCas9 eGFP disruption Rep1: replicate 1, raw readout; for Normalized Z rep2 / Z socre Rep2 / % GFP+, Rep 2: replicate 2; for SpCas9 eGFP disruption Rep2: replicate 2, raw readout
T1 sequence (Q99ZW2 whole entry): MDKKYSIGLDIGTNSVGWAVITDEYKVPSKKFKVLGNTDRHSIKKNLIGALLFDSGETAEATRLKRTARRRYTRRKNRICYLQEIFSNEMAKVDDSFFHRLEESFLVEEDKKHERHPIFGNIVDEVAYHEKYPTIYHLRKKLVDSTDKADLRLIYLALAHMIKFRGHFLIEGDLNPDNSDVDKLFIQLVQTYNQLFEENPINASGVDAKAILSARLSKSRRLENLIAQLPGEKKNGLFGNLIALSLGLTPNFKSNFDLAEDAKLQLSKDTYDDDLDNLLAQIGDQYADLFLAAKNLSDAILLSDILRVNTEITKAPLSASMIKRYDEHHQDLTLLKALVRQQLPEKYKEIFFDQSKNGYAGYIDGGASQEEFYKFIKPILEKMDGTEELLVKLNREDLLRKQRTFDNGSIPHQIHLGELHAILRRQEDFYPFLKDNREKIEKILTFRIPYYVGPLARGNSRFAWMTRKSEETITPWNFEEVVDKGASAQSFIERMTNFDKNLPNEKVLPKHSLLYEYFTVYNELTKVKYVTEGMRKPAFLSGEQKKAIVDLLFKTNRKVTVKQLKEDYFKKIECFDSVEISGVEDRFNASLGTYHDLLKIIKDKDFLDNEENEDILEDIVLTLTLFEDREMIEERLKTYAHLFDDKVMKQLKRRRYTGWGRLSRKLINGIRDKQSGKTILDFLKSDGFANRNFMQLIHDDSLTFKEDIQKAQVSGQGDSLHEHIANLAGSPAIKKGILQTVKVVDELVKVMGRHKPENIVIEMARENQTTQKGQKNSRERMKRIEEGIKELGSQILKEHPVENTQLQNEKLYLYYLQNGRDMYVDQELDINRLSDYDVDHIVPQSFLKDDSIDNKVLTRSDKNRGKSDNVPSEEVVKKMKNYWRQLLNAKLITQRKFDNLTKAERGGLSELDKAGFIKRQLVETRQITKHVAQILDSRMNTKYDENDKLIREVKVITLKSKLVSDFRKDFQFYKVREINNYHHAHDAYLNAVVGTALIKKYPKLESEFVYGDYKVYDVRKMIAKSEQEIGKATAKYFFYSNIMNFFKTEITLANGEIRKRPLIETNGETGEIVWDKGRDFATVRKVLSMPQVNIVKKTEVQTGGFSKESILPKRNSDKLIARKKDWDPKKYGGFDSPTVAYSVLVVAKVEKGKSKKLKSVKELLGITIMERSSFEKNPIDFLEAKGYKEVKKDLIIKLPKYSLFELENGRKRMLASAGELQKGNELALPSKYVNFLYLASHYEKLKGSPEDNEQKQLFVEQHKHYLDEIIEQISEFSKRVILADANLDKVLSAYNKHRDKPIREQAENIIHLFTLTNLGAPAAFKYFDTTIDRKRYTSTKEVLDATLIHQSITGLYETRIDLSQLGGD
Summary of the method: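 Rescue of eGFP signal lost through Cas9-induced NHEJ indels serves as the inhibition read-out, after 24 h compound exposure (20 μM for hits, variable for dose-response). Editing was delivered by nucleofection into U2OS.eGFP.PEST cells as SpCas9/gRNA plasmids (300/30 ng) or RNP (10/12 pmol). Toxic and autofluorescent compounds were excluded.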

SpCas9 [2] = biological target: T1, SpCas9; assay: HiBiT knock-in assay, SpCas9, HEK293T cells; format: cell-based
Source text: Primary and secondary screening. The primary screen assayed a selection of unique chemical scaffolds derived from commercially available compounds and known bioactive molecular libraries (Table 7). Auto-fluorescent compounds were removed by a counter screen. Overall, the CAA was used to assay 122,409 small molecules with over 2,500 unique chemical scaffolds (FIG. 64F, Table 7). Of these compounds, 547 were selected as hits (Z score >3 in both replicates) for testing in orthogonal cell-based secondary assays. Hits were tested in duplicate in an eGFP disruption assay, wherein U2OS.eGFP.PEST cells^33 transfected with SpCas9 plasmid and eGFP-targeting gRNA plasmid were incubated with 20 μM of the compounds. In this assay, any compound that inhibited SpCas9 would rescue the loss of eGFP fluorescence. Here, toxic and auto-fluorescent compounds with a high GFP signal in cells were removed as false positives. […] Next, Applicants tested the 15 compounds in a luminescence-based gain-of-signal HiBiT knock-in assay, which involves SpCas9-mediated homology-directed tagging of GAPDH with a short peptide that luminesces upon complementation with a subunit derived from nanoluciferase.^34 Complementarily, the eGFP-disruption assay is fluorescence-based and involves error-prone DNA repair. As a counter-screen to remove false positives caused by cell death (viability <80%), the cell viability was measured after incubation.
Approximately 400,000 HEK293T cells were nucleofected with 400 ng of SpCas9 plasmid, 40 ng of GAPDH-targeting gRNA plasmid, and 40 pmol of single-strand oligodeoxynucleotide (ssODN) using SF Cell Line 4D-Nucleofector X Kit (Lonza) following the pulse program of DS-150. For RNP-based genome editing, 10 pmol of Cas9 and 12 pmol of gRNA were mixed and incubated for 5 min. Then, 20 pmol of ssODN was added. Cells were nucleofected with the resulting mixture using the same pulse program. Cells were then transferred to a 96-well plate at the density of 35,000 cells per well, and incubated with indicated amount of compounds for 24 h. Cell viability was measured using PrestoBlue reagent (Thermo) with a SpectraMax M5 (Molecular Devices) at the excitation and emission wavelength of 544 nm and 590 nm, respectively. Next, luminescence measurement was performed using the Nano-Glo HiBiT Lytic Detection System (Promega) according to the manufacturer's protocol with an EnVision Multilabel Plate Reader (PerkinElmer) at the integration time of 0.5 s per well. The resulting luminescence signals were normalized based on the cell viability.^34

SpCas9 [3] = biological target: T1, SpCas9; assay: Strand displacement assay (SDA) / cumulative activity assay (CAA), SpCas9 primary screen; format: biochemical; conditions: Primary Screen (150 min); for Normalized Z score 1: replicate 1; for Normalized Z score 2: replicate 2
Summary of the method: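 SpCas9:gRNA RNP in 20 mM Tris-HCl pH 7.5, 100 mM KCl, 5 mM MgCl2 was used at 10 nM (2× stock) with Alexa Fluor 647-labelled substrate and excess quencher strand (1 nM and 5 nM, 2× stocks). Fluorescence was read after 2.5 h at 37 °C, where cleavage lets the quencher strand anneal.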

[4] = result in words, relative to BRD7586
[5] = Cas9 = lower control, Ctrl = upper control
[6] = normalized, lower control about 0, upper control about 1

SMILES: c1ccc(-c2nnc3sc(-c4cc5ccccc5o4)nn23)nc1 [Compound D727-0535]
- eGFP disruption-% inhibition (SpCas9 [1]): 18.61%
- Normalized Z rep1 (SpCas9 [1]): −0.14
- Z score Rep1 (SpCas9 [1]): −0.99
- SpCas9 eGFP disruption Rep1 (SpCas9 [1]): 63.743
- Normalized Z rep2 (SpCas9 [1]): −0.22
- Z socre Rep2 (SpCas9 [1]): −2.07
- SpCas9 eGFP disruption Rep2 (SpCas9 [1]): 56.828
- Hibit assay-% inhibition (SpCas9 [2]): 18.11%

SMILES: O=C(CCSc1ccc(Cl)cc1)Nc1nc(-c2ccncc2)cs1 [Compound F2537-0908]
- Activity in eGFP-disruption assay (SpCas9 [1]; [4]): significantly lower inhibitory activity
- Activity in HiBiT knock-in assay (SpCas9 [2]; [4]): significantly lower inhibitory activity

SMILES: O=C(CCS(=O)(=O)c1ccccc1)Nc1nc(-c2ccncc2)cs1 [Compound G786-1264]
- Average Normalized Z score (SpCas9 [3]): 0.06
- avg z score primary (SpCas9 [3]): 5.95
- Normalized Z score 1 (SpCas9 [3]): 0.06
- Normalized Z score 2 (SpCas9 [3]): 0.06
- eGFP disruption-% inhibition (SpCas9 [1]): 41.72%
- % GFP+, Rep 1 (SpCas9 [1]; eGFP assay): 82.72%
- Z score Rep1 (SpCas9 [1]; eGFP assay): 3.83
- % GFP+, Rep 2 (SpCas9 [1]; eGFP assay): 83.95%
- Z score Rep1 (SpCas9 [1]): 3.83
- SpCas9 eGFP disruption Rep1 (SpCas9 [1]; [5]): 82.717
- Normalized Z rep1 (SpCas9 [1]; [6]): 0.37
- Z socre Rep2 (SpCas9 [1]): 9.69
- SpCas9 eGFP disruption Rep2 (SpCas9 [1]; [5]): 83.951
- Normalized Z rep2 (SpCas9 [1]; [6]): 0.42
- Hibit assay-% inhibition (SpCas9 [2]): 72.63%

SMILES: O=C(CCS(=O)(=O)c1ccc(Cl)cc1)Nc1nc(-c2ccccn2)cs1 [Compound G786-1324]
- Average Normalized Z score (SpCas9 [3]): 0.05
- avg z score primary (SpCas9 [3]): 4.44
- Normalized Z score 1 (SpCas9 [3]): 0.05
- Normalized Z score 2 (SpCas9 [3]): 0.04
- eGFP disruption-% inhibition (SpCas9 [1]): 32.94%
- % GFP+, Rep 1 (SpCas9 [1]; eGFP assay): 81.43%
- Z score Rep1 (SpCas9 [1]; eGFP assay): 3.12
- % GFP+, Rep 2 (SpCas9 [1]; eGFP assay): 79.94%
- Z score Rep1 (SpCas9 [1]): 3.12
- SpCas9 eGFP disruption Rep1 (SpCas9 [1]; [5]): 81.427
- Normalized Z rep1 (SpCas9 [1]; [6]): 0.30
- Z socre Rep2 (SpCas9 [1]): 4.86
- SpCas9 eGFP disruption Rep2 (SpCas9 [1]; [5]): 79.939
- Normalized Z rep2 (SpCas9 [1]; [6]): 0.21
- Hibit assay-% inhibition (SpCas9 [2]): 94.5%

SMILES: O=C(CCS(=O)(=O)c1ccc(Cl)cc1)Nc1nc(-c2ccncc2)cs1 [Compound G786-1325]
- Average Normalized Z score (SpCas9 [3]): 0.04
- avg z score primary (SpCas9 [3]): 4.35
- Normalized Z score 1 (SpCas9 [3]): 0.05
- Normalized Z score 2 (SpCas9 [3]): 0.04
- eGFP disruption-% inhibition (SpCas9 [1]): 56.65%
- % GFP+, Rep 1 (SpCas9 [1]; eGFP assay): 86.01%
- Z score Rep1 (SpCas9 [1]; eGFP assay): 5.65
- % GFP+, Rep 2 (SpCas9 [1]; eGFP assay): 86.24%
- Z score Rep1 (SpCas9 [1]): 5.65
- SpCas9 eGFP disruption Rep1 (SpCas9 [1]; [5]): 86.012
- Normalized Z rep1 (SpCas9 [1]; [6]): 0.54
- Z socre Rep2 (SpCas9 [1]): 12.44
- SpCas9 eGFP disruption Rep2 (SpCas9 [1]; [5]): 86.243
- Normalized Z rep2 (SpCas9 [1]; [6]): 0.54
- Hibit assay-% inhibition (SpCas9 [2]): 97.09%

SMILES: Cc1ccccc1C(=O)Nc1nc2ccc(S(N)(=O)=O)cc2s1 [Compound G786-1547]
- Average Normalized Z score (SpCas9 [3]): 0.04
- avg z score primary (SpCas9 [3]): 3.81
- Normalized Z score 1 (SpCas9 [3]): 0.04
- Normalized Z score 2 (SpCas9 [3]): 0.04
- eGFP disruption-% inhibition (SpCas9 [1]): 42.41%
- % GFP+, Rep 1 (SpCas9 [1]; eGFP assay): 82.8%
- Z score Rep1 (SpCas9 [1]; eGFP assay): 3.88
- % GFP+, Rep 2 (SpCas9 [1]; eGFP assay): 84.09%
- Z score Rep1 (SpCas9 [1]): 3.88
- SpCas9 eGFP disruption Rep1 (SpCas9 [1]; [5]): 82.802
- Normalized Z rep1 (SpCas9 [1]; [6]): 0.37
- Z socre Rep2 (SpCas9 [1]): 9.85
- SpCas9 eGFP disruption Rep2 (SpCas9 [1]; [5]): 84.086
- Normalized Z rep2 (SpCas9 [1]; [6]): 0.43
- Hibit assay-% inhibition (SpCas9 [2]): 4.3%

SMILES: CCN1C(=O)c2cccc3cccc1c23 [Compound T0503-6911]
- avg z score primary (SpCas9 [3]): 6.86
- Average Normalized Z score (SpCas9 [3]; average of replicates): 0.08
- Normalized Z score 1 (SpCas9 [3]): 0.06
- Normalized Z score 2 (SpCas9 [3]): 0.10
- eGFP disruption-% inhibition (SpCas9 [1]): 26.33%
- % GFP+, Rep 1 (SpCas9 [1]; eGFP assay): 67.52%
- Z score Rep1 (SpCas9 [1]; eGFP assay): 3.76
- % GFP+, Rep 2 (SpCas9 [1]; eGFP assay): 66.59%
- Z score Rep1 (SpCas9 [1]): 3.76
- SpCas9 eGFP disruption Rep1 (SpCas9 [1]; [5]): 67.522
- Normalized Z rep1 (SpCas9 [1]; [6]): 0.26
- Z socre Rep2 (SpCas9 [1]): 6.09
- SpCas9 eGFP disruption Rep2 (SpCas9 [1]; [5]): 66.588
- Normalized Z rep2 (SpCas9 [1]; [6]): 0.29
- Hibit assay-% inhibition (SpCas9 [2]): 18.06%

SMILES: NC1=C(c2nc3ccccc3s2)C(=O)CN1N=Cc1ccc(-c2ccc(S(=O)(=O)Nc3ncccn3)cc2)o1 [Compound T5371551]
- avg z score primary (SpCas9 [3]): 9.04
- Average Normalized Z score (SpCas9 [3]; average of replicates): 0.60
- Normalized Z score 1 (SpCas9 [3]): 0.61
- Normalized Z score 2 (SpCas9 [3]): 0.58
- eGFP disruption-% inhibition (SpCas9 [1]): 22.88%
- % GFP+, Rep 1 (SpCas9 [1]; eGFP assay): 64.28%
- Z score Rep1 (SpCas9 [1]; eGFP assay): 2.50
- % GFP+, Rep 2 (SpCas9 [1]; eGFP assay): 76.75%
- Z score Rep1 (SpCas9 [1]): 2.50
- SpCas9 eGFP disruption Rep1 (SpCas9 [1]; [5]): 64.278
- Normalized Z rep1 (SpCas9 [1]; [6]): 0.17
- Z socre Rep2 (SpCas9 [1]): 11.57
- SpCas9 eGFP disruption Rep2 (SpCas9 [1]; [5]): 76.754
- Normalized Z rep2 (SpCas9 [1]; [6]): 0.56
- Hibit assay-% inhibition (SpCas9 [2]): −12.66%

SMILES: Cc1nc2ccccc2c(C)c1CC(=O)N1CCN(c2ccc(O)cc2)CC1 [Compound T5461482]
- avg z score primary (SpCas9 [3]): 3.23
- Average Normalized Z score (SpCas9 [3]; average of replicates): 0.10
- Normalized Z score 1 (SpCas9 [3]): 0.09
- Normalized Z score 2 (SpCas9 [3]): 0.10
- eGFP disruption-% inhibition (SpCas9 [1]): 24.48%
- % GFP+, Rep 1 (SpCas9 [1]; eGFP assay): 66.84%
- Z score Rep1 (SpCas9 [1]; eGFP assay): 3.50
- % GFP+, Rep 2 (SpCas9 [1]; eGFP assay): 67.11%
- Z score Rep1 (SpCas9 [1]): 3.50
- SpCas9 eGFP disruption Rep1 (SpCas9 [1]; [5]): 66.842
- Normalized Z rep1 (SpCas9 [1]; [6]): 0.24
- Z socre Rep2 (SpCas9 [1]): 6.37
- SpCas9 eGFP disruption Rep2 (SpCas9 [1]; [5]): 67.113
- Normalized Z rep2 (SpCas9 [1]; [6]): 0.31
- Hibit assay-% inhibition (SpCas9 [2]): 36.6%

SMILES: O=C(CSc1nccn1-c1cccc(F)c1)N1CCN(c2ccc(O)cc2)CC1 [Compound T5535170]
- avg z score primary (SpCas9 [3]): 4.37
- Average Normalized Z score (SpCas9 [3]; average of replicates): 0.31
- Normalized Z score 1 (SpCas9 [3]): 0.28
- Normalized Z score 2 (SpCas9 [3]): 0.33
- eGFP disruption-% inhibition (SpCas9 [1]): 27.53%
- % GFP+, Rep 1 (SpCas9 [1]; eGFP assay): 67.96%
- Z score Rep1 (SpCas9 [1]; eGFP assay): 3.93
- % GFP+, Rep 2 (SpCas9 [1]; eGFP assay): 65.34%
- Z score Rep1 (SpCas9 [1]): 3.93
- SpCas9 eGFP disruption Rep1 (SpCas9 [1]; [5]): 67.964
- Normalized Z rep1 (SpCas9 [1]; [6]): 0.28
- Z socre Rep2 (SpCas9 [1]): 5.41
- SpCas9 eGFP disruption Rep2 (SpCas9 [1]; [5]): 65.339
- Normalized Z rep2 (SpCas9 [1]; [6]): 0.26
- Hibit assay-% inhibition (SpCas9 [2]): 68.25%
